# Assay results: patent US6921531B2, “Administering bifunctional molecules containing a drug moiety and presenter protein ligand for therapy” (The Board of Trustees of the Leland Stanford Junior …, priority 1998, dated 2005)
# “Also recorded” adds a separate entry of the source.
# Assays:
# [1] = target: T1, Lck SH2 domain (Homo sapiens, UniProt P06239); assay: Competition binding assay of radioactive Lck SH2 domain to pYEEI beads; settings: 1.0 μM ligand plus FKBP12 2.0 μM
# T1 construct: The Fyn, Lck and PLC SH2 domains were expressed in bacteria as GST fusion proteins; GST (cleaved yes); made in house; host or cells: bacteria
# Description: The pYEEI peptide was coupled to Affi-Gel 10 beads (Biorad) via its amino-group. The Fyn, Lck and PLC SH2 domains were expressed in bacteria as GST fusion proteins. The linker between the GST protein and the SH2 domain contained a thrombin cleavage site and a protein kinase A (PKA) phosphorylation site. The fusion protein on glutathione beads was radioactively labeled at the PKA phosphorylation site using PKA (Sigma). After extensive washing of the beads, the radioactive SH2 domain was released by cleavage with thrombin (Sigma). […] The beads were resuspended in […] PBS and the radioactivity was counted in a liquid scintillation counter after addition of 3 ml scintillation fluid. The radioactivity remaining in the 100 L supernatant was counted in the same way. It was determined that under the conditions described 65% Fyn, 25% PLC and 15%Lck SH2 domain were bound to the beads. […]
# To test if the presence of FKBP12 affects the affinity of FKpYEEI for other SH2 domains aside from the PLC SH2 domain, FKpYEEI and FKBP12 were added to binding reactions containing the Fyn, Lck or PLC SH2 domains (FIG. 10). […] The binding reactions were rotated at room temperature for 2 hours, centrifuged and analysed as described above. […]
# [2] = tested on: PLC SH2 domain; assay: Competition binding assay of radioactive PLC SH2 domain to pYEEI beads; settings: 1.0-1.5 μM ligand plus FKBP12 (0.5-4.0 μM or 2.0 μM)
# Description: The pYEEI peptide was coupled to Affi-Gel 10 beads (Biorad) via its amino-group. The Fyn, Lck and PLC SH2 domains were expressed in bacteria as GST fusion proteins. The linker between the GST protein and the SH2 domain contained a thrombin cleavage site and a protein kinase A (PKA) phosphorylation site. The fusion protein on glutathione beads was radioactively labeled at the PKA phosphorylation site using PKA (Sigma). After extensive washing of the beads, the radioactive SH2 domain was released by cleavage with thrombin (Sigma). In a typical binding assay, 7.5 L of a 1:1 peptide bead slurry were incubated with the radioactive SH2 domain (200 nM) for 2 hours in 100 L of binding buffer (20 mM Tris pH7.2; 150 mM NaCl). In order to separate the radioactive protein bound to the beads, the binding reaction was transfered into a PCR tube (USA Scientific Plastic), whose bottom had been punctured with a 26gauge needle. The PCR tube was placed in a 0.5 mL Eppendorf tube which in turn was placed in a regular 1.5 mL Eppendorf tube. The tubes were spun for 1 second at maximal speed in an Eppendorf centrifuge resulting in the separation of the beads remaining in the PCR tube and the supernatant, which was collected in the 0.5 ml Eppendorf tube. The beads were resuspended in […] PBS and the radioactivity was counted in a liquid scintillation counter after addition of 3 ml scintillation fluid. The radioactivity remaining in the 100 L supernatant was counted in the same way. It was determined that under the conditions described 65% Fyn, 25% PLC and 15%Lck SH2 domain were bound to the beads. […]
# The binary complex of FKpYEEI and FKBP 12 has the same affinity for the Fyn SH2 domain as free FKpYEEI (see FIG. 7). […] The binding reactions were rotated at room temperature for 2 hours, centrifuged and analysed as described above.
# In this assay, in 100 L binding reactions, radioactively labeled PLC SH2 domain (400 nM) was incubated with 7.5 L of a 1:1 pYEEI bead slurry. […] The binding reactions were rotated at room temperature for 2 hours, centrifuged and analysed as described above. […]
# T1 sequence (P06239 127-224 limits assumed): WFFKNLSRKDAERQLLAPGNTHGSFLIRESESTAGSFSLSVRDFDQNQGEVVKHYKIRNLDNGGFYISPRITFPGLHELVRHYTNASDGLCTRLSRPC
Structure (SMILES),Effect of FKBP12 on affinity for the Lck SH2 domain [1],Effect of FKBP12 on affinity for the PLC SH2 domain [2]
CC[C@H](C)[C@H](NC(=O)[C@H](CCC(=O)O)NC(=O)[C@H](CCC(=O)O)NC(=O)[C@H](Cc1ccc(OP(=O)(O)O)cc1)NC(=O)COc1cccc([C@@H](CCc2ccc(OC)c(OC)c2)OC(=O)[C@@H]2CCCCN2C(=O)C(=O)C(C)(C)CC)c1)C(=O)O [SLFpYEEI],reduced binding,reduced binding
CC[C@H](C)[C@H](NC(=O)[C@H](CCC(=O)O)NC(=O)[C@H](CCC(=O)O)NC(=O)[C@H](Cc1ccc(OP(=O)(O)O)cc1)NC(=O)OCC[C@@H]1/C=C(\C)C[C@H](C)C[C@H](OC)[C@H]2O[C@@](O)(C(=O)C(=O)N3CCCC[C@H]3C(=O)O[C@H](/C(C)=C/[C@@H]3CC[C@@H](O)[C@H](OC)C3)[C@H](C)[C@@H](O)CC1=O)[C@H](C)C[C@@H]2OC)C(=O)O [FKpYEEI],does not affect the affinity,decreased affinity for the PLC SH2 domain; also recorded: reducing binding to the PLC SH2 domain
